Data from ChEMBL document CHEMBL1154195, “Synthesis and binding affinity of potential atypical antipsychotics with the tetrahydroquinazolinone motif” (Bioorg Med Chem Lett, 2009).

Experiments:
[1] = molecular target: 5-hydroxytryptamine receptor 2A (Homo sapiens, UniProt P28223); assay: Displacement of [3H]ketanserin from human cloned 5HT2A receptor
[2] = species: Homo sapiens; assay: Ratio of pKi for human cloned 5HT2A receptor to pKi for human cloned dopamine D2 receptor
[3] = molecular target: D(3) dopamine receptor (Homo sapiens, UniProt P35462)
Description: Displacement of [3H]spiperone from human dopamine D3 receptor

[4] = molecular target: D(1A) dopamine receptor (Homo sapiens, UniProt P21728)
Description: Displacement of [3H]SCH23390 from human dopamine D1 receptor

[5] = molecular target: T1, 5-hydroxytryptamine receptor 2C (Homo sapiens, UniProt P28335); assay: Displacement of [3H]mesulergine from human 5HT2C receptor
T1 sequence (P28335 whole entry): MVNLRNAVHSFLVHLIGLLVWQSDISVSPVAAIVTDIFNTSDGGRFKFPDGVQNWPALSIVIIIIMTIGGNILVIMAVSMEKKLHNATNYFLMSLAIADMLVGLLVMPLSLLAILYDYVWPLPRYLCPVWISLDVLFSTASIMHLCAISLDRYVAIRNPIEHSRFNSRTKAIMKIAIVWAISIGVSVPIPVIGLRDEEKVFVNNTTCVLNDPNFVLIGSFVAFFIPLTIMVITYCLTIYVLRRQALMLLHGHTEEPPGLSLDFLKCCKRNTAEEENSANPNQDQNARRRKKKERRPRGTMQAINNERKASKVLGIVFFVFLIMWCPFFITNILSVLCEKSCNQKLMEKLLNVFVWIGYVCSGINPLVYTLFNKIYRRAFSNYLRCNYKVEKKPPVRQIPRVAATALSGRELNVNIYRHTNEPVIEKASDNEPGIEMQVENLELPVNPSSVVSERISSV

[6] = molecular target: D(2) dopamine receptor (Homo sapiens) (UniProt P14416); assay: Displacement of [3H]spiperone from human cloned dopamine D2 receptor at 10 uM
Sequence of D(2) dopamine receptor (Homo sapiens) (P14416 whole entry): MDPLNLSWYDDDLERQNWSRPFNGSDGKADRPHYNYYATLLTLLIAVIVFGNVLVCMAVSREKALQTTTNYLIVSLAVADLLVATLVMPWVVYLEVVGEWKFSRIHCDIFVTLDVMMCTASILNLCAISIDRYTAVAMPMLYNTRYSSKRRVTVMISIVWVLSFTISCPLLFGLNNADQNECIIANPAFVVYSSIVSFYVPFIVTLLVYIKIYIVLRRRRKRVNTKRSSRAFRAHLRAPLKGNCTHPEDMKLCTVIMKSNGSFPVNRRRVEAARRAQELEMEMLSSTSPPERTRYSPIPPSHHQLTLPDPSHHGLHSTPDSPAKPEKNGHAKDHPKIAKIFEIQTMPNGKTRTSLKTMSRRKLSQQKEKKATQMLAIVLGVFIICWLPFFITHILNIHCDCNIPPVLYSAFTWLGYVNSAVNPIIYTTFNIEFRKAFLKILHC

Sequence of D(3) dopamine receptor (P35462 whole entry): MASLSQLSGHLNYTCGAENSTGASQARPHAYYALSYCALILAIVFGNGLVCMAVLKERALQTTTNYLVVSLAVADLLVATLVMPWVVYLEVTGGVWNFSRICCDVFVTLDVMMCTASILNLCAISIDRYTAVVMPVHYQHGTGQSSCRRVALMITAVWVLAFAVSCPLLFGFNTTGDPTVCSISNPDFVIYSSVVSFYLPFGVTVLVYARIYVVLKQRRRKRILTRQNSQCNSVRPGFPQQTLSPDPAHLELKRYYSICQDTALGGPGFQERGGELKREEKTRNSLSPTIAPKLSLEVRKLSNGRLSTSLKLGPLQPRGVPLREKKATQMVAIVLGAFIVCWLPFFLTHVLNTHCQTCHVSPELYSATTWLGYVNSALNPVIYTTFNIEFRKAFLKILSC
Sequence of 5-hydroxytryptamine receptor 2A (P28223 whole entry): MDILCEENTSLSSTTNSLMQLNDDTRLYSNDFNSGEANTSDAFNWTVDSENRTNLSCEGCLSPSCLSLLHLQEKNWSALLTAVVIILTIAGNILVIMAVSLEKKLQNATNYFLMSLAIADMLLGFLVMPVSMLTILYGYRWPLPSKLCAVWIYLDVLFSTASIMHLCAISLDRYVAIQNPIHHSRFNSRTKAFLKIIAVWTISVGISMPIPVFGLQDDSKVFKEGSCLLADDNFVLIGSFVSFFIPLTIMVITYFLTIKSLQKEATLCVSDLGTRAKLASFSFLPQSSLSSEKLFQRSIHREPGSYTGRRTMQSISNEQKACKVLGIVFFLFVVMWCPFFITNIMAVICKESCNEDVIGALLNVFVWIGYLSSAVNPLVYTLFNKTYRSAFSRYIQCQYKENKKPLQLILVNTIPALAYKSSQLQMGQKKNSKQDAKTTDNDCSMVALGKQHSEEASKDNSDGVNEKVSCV
Sequence of D(1A) dopamine receptor (P21728 whole entry): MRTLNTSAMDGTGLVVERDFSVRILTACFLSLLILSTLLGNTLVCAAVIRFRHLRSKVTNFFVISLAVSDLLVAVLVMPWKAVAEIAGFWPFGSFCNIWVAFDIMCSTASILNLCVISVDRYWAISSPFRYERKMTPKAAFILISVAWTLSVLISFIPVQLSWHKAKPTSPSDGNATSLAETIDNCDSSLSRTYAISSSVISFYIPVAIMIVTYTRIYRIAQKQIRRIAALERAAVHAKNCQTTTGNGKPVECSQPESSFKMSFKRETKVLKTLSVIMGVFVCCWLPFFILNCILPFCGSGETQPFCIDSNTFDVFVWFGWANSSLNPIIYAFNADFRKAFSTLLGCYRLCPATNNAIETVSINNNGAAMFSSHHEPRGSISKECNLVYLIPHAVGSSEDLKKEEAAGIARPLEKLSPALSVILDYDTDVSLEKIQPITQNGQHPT

| Ki [1] [µM] | Ratio pKi [2] | Ki [3] [µM] | Ki [4] [µM] | Ki [5] [µM] | inhibition [6] [%] | Compound |
| --- | --- | --- | --- | --- | --- | --- |
| 0.0234 | 1.12 | 0.282 | 0.135 | 0.501 |  | O=C1CC(CN2CCC(c3noc4cc(F)ccc34)CC2)Cc2ncncc21 (stereo not drawn) |
| 0.126 | 0.92 |  |  |  |  | O=C1CC(CN2CCC(c3noc4cc(F)ccc34)CC2)Cc2nc(-c3ccccc3)ncc21 (stereo not drawn) |
| 0.0024 | 1.18 | 0.2 | 0.0427 | > 10 |  | CNc1ncc2c(n1)CC(CN1CCC(c3noc4cc(F)ccc34)CC1)CC2=O (stereo not drawn) |
| 0.00457 |  | 0.0447 |  | > 10 |  | CSc1ncc2c(n1)CC(CN1CCC(c3noc4cc(F)ccc34)CC1)CC2=O (stereo not drawn) |
| 0.102 |  |  |  |  | < 60 | CSc1ncc2c(n1)CC(CN1CCC(C(=O)c3ccc(F)cc3)CC1)CC2=O (stereo not drawn) |
| 0.631 |  |  |  |  | < 60 | O=C1CC(CN2CCC(C(=O)c3ccc(F)cc3)CC2)Cc2nc(-c3ccccc3)ncc21 (stereo not drawn) |
| 0.309 | 1.05 |  |  |  |  | O=C1CC(CN2CCC(C(=O)c3ccc(F)cc3)CC2)Cc2ncncc21 (stereo not drawn) |
| 0.00646 | 1.23 |  |  |  |  | CNc1ncc2c(n1)CC(CN1CCC(C(=O)c3ccc(F)cc3)CC1)CC2=O (stereo not drawn) |
